{"source": "ChEMBL document CHEMBL3885881", "about": "“DrugMatrix”", "species_on_record": "Rattus norvegicus", "assay": "DrugMatrix - Regimen: Daily Repeat", "format": "toxicity, organism-based, Sprague-Dawley", "parameters": "regimen Daily Repeat, gender Male, age 6-8 weeks", "conditions": "in vivo, po, 1000 mg/kg, route oral GAVAGE, dose level High, vehicle 100 % WATER; for ABSOLUTE BASOPHIL / ABSOLUTE EOSINOPHIL / ABSOLUTE LYMPHOCYTE / ABSOLUTE MONOCYTE / ABSOLUTE SEGMENTED NEUTROPHIL / BASOPHIL / EOSINOPHIL / ERYTHROCYTE COUNT / HEMATOCRIT / HEMOGLOBIN / LEUKOCYTE COUNT / LYMPHOCYTE / MEAN CORPUSCULAR HEMOGLOBIN / MEAN CORPUSCULAR HEMOGLOBIN CONCENTRATION / MEAN CORPUSCULAR VOLUME / MONOCYTE / NEUTROPHIL / NUCLEATED RED BLOOD CELLS / PLATELET COUNT: tissue Blood; for ALANINE AMINOTRANSFERASE / ALBUMIN / ALKALINE PHOSPHATASE / ASPARTATE AMINOTRANSFERASE / BLOOD UREA NITROGEN / CARBON DIOXIDE / CHLORIDE / CHOLESTEROL / CREATINE PHOSPHOKINASE / CREATININE / GLUCOSE / LACTATE DEHYDROGENASE / LIPASE / PHOSPHORUS / POTASSIUM / SODIUM / TOTAL BILIRUBIN / TOTAL PROTEIN / URIC ACID: tissue Plasma", "data": [{"smiles": "Cc1cc(NS(=O)(=O)c2ccc(N)cc2)no1", "note": "[SULFAMETHOXAZOLE]", "values": [{"measurement": "ABSOLUTE BASOPHIL", "setting": "72 h, time 3 day", "value": 0, "unit": "CELLS/uL"}, {"measurement": "ABSOLUTE EOSINOPHIL", "setting": "72 h, time 3 day", "value": 124.33, "unit": "CELLS/uL"}, {"measurement": "ABSOLUTE LYMPHOCYTE", "setting": "72 h, time 3 day", "value": 12097, "unit": "CELLS/uL"}, {"measurement": "ABSOLUTE MONOCYTE", "setting": "72 h, time 3 day", "value": 47.67, "unit": "CELLS/uL"}, {"measurement": "ABSOLUTE SEGMENTED NEUTROPHIL", "setting": "72 h, time 3 day", "value": 1331, "unit": "CELLS/uL"}, {"measurement": "BASOPHIL", "setting": "72 h, time 3 day", "value": 0, "unit": "%"}, {"measurement": "EOSINOPHIL", "setting": "72 h, time 3 day", "value": 1, "unit": "%"}, {"measurement": "ERYTHROCYTE COUNT", "setting": "72 h, time 3 day", "value": 5.34, "unit": "x10E6/uL"}, {"measurement": "HEMATOCRIT", "setting": "72 h, time 3 day", "value": 34.63, "unit": "%"}, {"measurement": "HEMOGLOBIN", "setting": "72 h, time 3 day", "value": 13.53, "unit": "G/DL"}, {"measurement": "LEUKOCYTE COUNT", "setting": "72 h, time 3 day", "value": 13.6, "unit": "x10E3/uL"}, {"measurement": "LYMPHOCYTE", "setting": "72 h, time 3 day", "value": 89, "unit": "%"}, {"measurement": "MEAN CORPUSCULAR HEMOGLOBIN", "setting": "72 h, time 3 day", "value": 25.37, "unit": "pg"}, {"measurement": "MEAN CORPUSCULAR HEMOGLOBIN CONCENTRATION", "setting": "72 h, time 3 day", "value": 39.07, "unit": "G/DL"}, {"measurement": "MEAN CORPUSCULAR VOLUME", "setting": "72 h, time 3 day", "value": 64.87, "unit": "fL"}, {"measurement": "MONOCYTE", "setting": "72 h, time 3 day", "value": 0.33, "unit": "%"}, {"measurement": "NEUTROPHIL", "setting": "72 h, time 3 day", "value": 9.67, "unit": "%"}, {"measurement": "NUCLEATED RED BLOOD CELLS", "setting": "72 h, time 3 day", "value": "0 /100WBC"}, {"measurement": "PLATELET COUNT", "setting": "72 h, time 3 day", "value": 1220, "unit": "x10E3/uL"}, {"measurement": "ALANINE AMINOTRANSFERASE", "setting": "72 h, time 3 day", "value": 53.33, "unit": "u/L"}, {"measurement": "ALBUMIN", "setting": "72 h, time 3 day", "value": 4.13, "unit": "G/DL"}, {"measurement": "ALKALINE PHOSPHATASE", "setting": "72 h, time 3 day", "value": 298.33, "unit": "u/L"}, {"measurement": "ASPARTATE AMINOTRANSFERASE", "setting": "72 h, time 3 day", "value": 88.67, "unit": "u/L"}, {"measurement": "BLOOD UREA NITROGEN", "setting": "72 h, time 3 day", "value": 16, "unit": "mg/dL"}, {"measurement": "CARBON DIOXIDE", "setting": "72 h, time 3 day", "value": 26, "unit": "mmol/L"}, {"measurement": "CHLORIDE", "setting": "72 h, time 3 day", "value": 101, "unit": "MEQ/L"}, {"measurement": "CHOLESTEROL", "setting": "72 h, time 3 day", "value": 79.67, "unit": "mg/dL"}, {"measurement": "CREATINE PHOSPHOKINASE", "setting": "72 h, time 3 day", "value": 356.33, "unit": "u/L"}, {"measurement": "CREATININE", "setting": "72 h, time 3 day", "value": 0.17, "unit": "mg/dL"}, {"measurement": "GLUCOSE", "setting": "72 h, time 3 day", "value": 141.33, "unit": "mg/dL"}, {"measurement": "LACTATE DEHYDROGENASE", "setting": "72 h, time 3 day", "value": 488.67, "unit": "u/L"}, {"measurement": "LIPASE", "setting": "72 h, time 3 day", "value": 10.67, "unit": "u/L"}, {"measurement": "PHOSPHORUS", "setting": "72 h, time 3 day", "value": 12.43, "unit": "mg/dL"}, {"measurement": "POTASSIUM", "setting": "72 h, time 3 day", "value": 6.92, "unit": "MEQ/L"}, {"measurement": "SODIUM", "setting": "72 h, time 3 day", "value": 145.43, "unit": "MEQ/L"}, {"measurement": "TOTAL BILIRUBIN", "setting": "72 h, time 3 day", "value": 0.2, "unit": "mg/dL"}, {"measurement": "TOTAL PROTEIN", "setting": "72 h, time 3 day", "value": 6.07, "unit": "G/DL"}, {"measurement": "URIC ACID", "setting": "72 h, time 3 day", "value": 1.63, "unit": "mg/dL"}, {"measurement": "ABSOLUTE BASOPHIL", "setting": "120 h, time 5 day", "value": 0, "unit": "CELLS/uL"}, {"measurement": "ABSOLUTE EOSINOPHIL", "setting": "120 h, time 5 day", "value": 0, "unit": "CELLS/uL"}, {"measurement": "ABSOLUTE LYMPHOCYTE", "setting": "120 h, time 5 day", "value": 14525.67, "unit": "CELLS/uL"}, {"measurement": "ABSOLUTE MONOCYTE", "setting": "120 h, time 5 day", "value": 88, "unit": "CELLS/uL"}, {"measurement": "ABSOLUTE SEGMENTED NEUTROPHIL", "setting": "120 h, time 5 day", "value": 1019.67, "unit": "CELLS/uL"}, {"measurement": "BASOPHIL", "setting": "120 h, time 5 day", "value": 0, "unit": "%"}, {"measurement": "EOSINOPHIL", "setting": "120 h, time 5 day", "value": 0, "unit": "%"}, {"measurement": "ERYTHROCYTE COUNT", "setting": "120 h, time 5 day", "value": 4.62, "unit": "x10E6/uL"}, {"measurement": "HEMATOCRIT", "setting": "120 h, time 5 day", "value": 29.8, "unit": "%"}, {"measurement": "HEMOGLOBIN", "setting": "120 h, time 5 day", "value": 12.13, "unit": "G/DL"}, {"measurement": "LEUKOCYTE COUNT", "setting": "120 h, time 5 day", "value": 15.63, "unit": "x10E3/uL"}, {"measurement": "LYMPHOCYTE", "setting": "120 h, time 5 day", "value": 94, "unit": "%"}, {"measurement": "MEAN CORPUSCULAR HEMOGLOBIN", "setting": "120 h, time 5 day", "value": 26.43, "unit": "pg"}, {"measurement": "MEAN CORPUSCULAR HEMOGLOBIN CONCENTRATION", "setting": "120 h, time 5 day", "value": 40.77, "unit": "G/DL"}, {"measurement": "MEAN CORPUSCULAR VOLUME", "setting": "120 h, time 5 day", "value": 64.9, "unit": "fL"}, {"measurement": "MONOCYTE", "setting": "120 h, time 5 day", "value": 0.33, "unit": "%"}, {"measurement": "NEUTROPHIL", "setting": "120 h, time 5 day", "value": 5.67, "unit": "%"}, {"measurement": "NUCLEATED RED BLOOD CELLS", "setting": "120 h, time 5 day", "value": "0 /100WBC"}, {"measurement": "PLATELET COUNT", "setting": "120 h, time 5 day", "value": 1090.33, "unit": "x10E3/uL"}, {"measurement": "ALANINE AMINOTRANSFERASE", "setting": "120 h, time 5 day", "value": 53.33, "unit": "u/L"}, {"measurement": "ALBUMIN", "setting": "120 h, time 5 day", "value": 4.1, "unit": "G/DL"}, {"measurement": "ALKALINE PHOSPHATASE", "setting": "120 h, time 5 day", "value": 272.5, "unit": "u/L"}, {"measurement": "ASPARTATE AMINOTRANSFERASE", "setting": "120 h, time 5 day", "value": 97, "unit": "u/L"}, {"measurement": "BLOOD UREA NITROGEN", "setting": "120 h, time 5 day", "value": 17, "unit": "mg/dL"}, {"measurement": "CARBON DIOXIDE", "setting": "120 h, time 5 day", "value": 21, "unit": "mmol/L"}, {"measurement": "CHLORIDE", "setting": "120 h, time 5 day", "value": 107.5, "unit": "MEQ/L"}, {"measurement": "CHOLESTEROL", "setting": "120 h, time 5 day", "value": 73, "unit": "mg/dL"}, {"measurement": "CREATINE PHOSPHOKINASE", "setting": "120 h, time 5 day", "value": 1048.33, "unit": "u/L"}, {"measurement": "CREATININE", "setting": "120 h, time 5 day", "value": 0.21, "unit": "mg/dL"}, {"measurement": "GLUCOSE", "setting": "120 h, time 5 day", "value": 149, "unit": "mg/dL"}, {"measurement": "LACTATE DEHYDROGENASE", "setting": "120 h, time 5 day", "value": 184, "unit": "u/L"}, {"measurement": "LIPASE", "setting": "120 h, time 5 day", "value": 12, "unit": "u/L"}, {"measurement": "PHOSPHORUS", "setting": "120 h, time 5 day", "value": 10.23, "unit": "mg/dL"}, {"measurement": "POTASSIUM", "setting": "120 h, time 5 day", "value": 6.38, "unit": "MEQ/L"}, {"measurement": "SODIUM", "setting": "120 h, time 5 day", "value": 147.2, "unit": "MEQ/L"}, {"measurement": "TOTAL BILIRUBIN", "setting": "120 h, time 5 day", "value": 0.2, "unit": "mg/dL"}, {"measurement": "TOTAL PROTEIN", "setting": "120 h, time 5 day", "value": 5.97, "unit": "G/DL"}, {"measurement": "URIC ACID", "setting": "120 h, time 5 day", "value": 1.2, "unit": "mg/dL"}]}]}
